Ki data for two molecules are collected here from BindingDB's records for PubMed 9067310 (Institut De Recherches Servier, 1997).

Assay [1] deals with T1, 5-hydroxytryptamine receptor 1A (Homo sapiens, UniProt P08908).
T1 sequence (P08908 whole entry): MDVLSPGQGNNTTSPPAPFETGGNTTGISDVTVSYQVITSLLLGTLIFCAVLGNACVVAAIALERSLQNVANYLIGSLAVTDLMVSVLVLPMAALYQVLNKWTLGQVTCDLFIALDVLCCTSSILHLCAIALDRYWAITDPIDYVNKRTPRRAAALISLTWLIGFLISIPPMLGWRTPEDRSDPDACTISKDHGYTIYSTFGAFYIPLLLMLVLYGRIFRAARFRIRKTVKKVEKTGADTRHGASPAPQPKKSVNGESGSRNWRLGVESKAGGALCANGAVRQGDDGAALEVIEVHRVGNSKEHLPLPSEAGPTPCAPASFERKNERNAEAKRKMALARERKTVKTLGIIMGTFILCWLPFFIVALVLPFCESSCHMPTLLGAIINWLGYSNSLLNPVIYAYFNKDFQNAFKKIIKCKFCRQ

A further assay concerns the target D(2) dopamine receptor (Homo sapiens, UniProt P14416).

Some results are limits rather than exact numbers.

D(2) dopamine receptor, sequence (P14416 whole entry): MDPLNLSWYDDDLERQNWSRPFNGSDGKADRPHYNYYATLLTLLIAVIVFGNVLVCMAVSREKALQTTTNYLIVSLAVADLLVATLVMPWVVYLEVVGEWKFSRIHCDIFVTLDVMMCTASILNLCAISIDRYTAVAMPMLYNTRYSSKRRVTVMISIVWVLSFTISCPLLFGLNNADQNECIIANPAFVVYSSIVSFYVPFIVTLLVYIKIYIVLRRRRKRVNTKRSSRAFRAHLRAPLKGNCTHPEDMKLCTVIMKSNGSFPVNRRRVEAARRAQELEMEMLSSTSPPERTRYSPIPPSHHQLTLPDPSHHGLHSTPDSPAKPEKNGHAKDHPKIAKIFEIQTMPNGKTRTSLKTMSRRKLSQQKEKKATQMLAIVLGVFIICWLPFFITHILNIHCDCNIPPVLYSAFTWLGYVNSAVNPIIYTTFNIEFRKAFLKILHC

As usually defined, the Ki is a dissociation constant, usually derived from enzyme kinetics or from competition with a known ligand. The molecule `CCCN(CCC)C1CCc2ccc(O)cc2C1` (stereo not drawn) yielded a Ki in assay [1] of 265 nM.

In the case of `CC(C)(C)NCC(O)COc1cccc2c1SCCC2` (single isomer, unassigned; (-)) [TERTATOLOL(-)], the Ki in assay [1] is 6.7 nM; on D(2) dopamine receptor it was > 10 µM.
